Reference: US20140120075A1, “Nanozyme Compositions and Methods of Synthesis and Use Thereof” (Board of Regents of the University of Nebraska, priority 2011, published 2014)

How the values were obtained:
[1] = molecular target: Catalase (from bovine liver), native (nC) (Bos taurus, UniProt P00432); settings: 50 mM phosphate buffer pH 7.4
Protocol: (§1) SOD1 (from bovine erythrocytes), hydrogen peroxide (H2O2), 2,3,5-triphenyltetrazolium chloride (TTC) and copper standards for Inductively Coupled Plasma Mass Spectroscopy (ICP-MS)—TraceCERT®, 1000 mg/L Cu in nitric acid) were from Sigma-Aldrich (St. Louis, Mo.). Catalase (from bovine liver) was from Calbiochem (Gibbstown, N.J.). PEG-pLL50 was from Alamanda Polymers™ (Huntsville, Ala.). […] Cross-linkers 3,3′-dithiobis(sulfosuccinimidylpropionate) (DTSSP) and bis(sulfosuccinimidyl)suberate (BS^3) were from Thermo Fisher Scientific (Rockford, Ill.). NAP™ desalting columns and HiPrep 16/60 Sephacryl S-400 HR column were from GE Healthcare (Piscataway, N.J.). Criterion Tris-HCl gels and Precision Plus Protein™ All Blue Standards were from Bio-Rad (Hercules, Calif.). SYPRO® Ruby protein gel stain and cell culture reagents were purchased from Invitrogen (Carlsbad, Calif.). CellTiter 96® AQueous One Solution Cell Proliferation Assay (MTS) was from Promega (Madison, Wis.). LumiMax Superoxide Anion Detection Kit was from Agilent Technologies, Inc. (Santa Clara, Calif.). All other reagents and supplies were from Fisher Scientific (Pittsburgh, Pa.) unless noted otherwise.

[2] = molecular target: Catalase (from bovine liver), DTSSP cross-linked cl-nanozyme with PEG-pLL50, non-purified (C2) (Bos taurus, UniProt P00432)
Catalase (from bovine liver), DTSSP cross-linked cl-nanozyme with PEG-pLL50, non-purified (C2), sequence (P00432 whole entry): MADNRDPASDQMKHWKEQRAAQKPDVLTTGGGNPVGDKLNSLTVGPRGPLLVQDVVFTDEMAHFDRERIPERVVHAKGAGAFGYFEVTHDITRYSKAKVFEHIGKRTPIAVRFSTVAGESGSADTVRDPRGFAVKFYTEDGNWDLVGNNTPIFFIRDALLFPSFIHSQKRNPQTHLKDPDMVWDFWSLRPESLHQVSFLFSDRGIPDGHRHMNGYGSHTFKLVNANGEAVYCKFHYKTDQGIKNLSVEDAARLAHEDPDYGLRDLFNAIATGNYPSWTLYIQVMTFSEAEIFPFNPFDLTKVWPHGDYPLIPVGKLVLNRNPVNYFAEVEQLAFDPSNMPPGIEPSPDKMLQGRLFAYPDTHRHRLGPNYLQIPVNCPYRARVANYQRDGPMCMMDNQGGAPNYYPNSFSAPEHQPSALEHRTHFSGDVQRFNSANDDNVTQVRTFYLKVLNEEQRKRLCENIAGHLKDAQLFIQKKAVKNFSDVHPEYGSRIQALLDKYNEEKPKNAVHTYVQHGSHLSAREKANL
Protocol: as §1
(§2) Enzyme and polymer stock solutions were prepared in 10 mM HEPES (pH 7.4) and 10 mM HEPES-buffered saline (HBS; pH 7.4) for SOD1 and catalase, respectively. Non-cross-linked BICs (Z+/−=2) were prepared as described (Klyachko et al. (2012) Nanomed. Nanotechnol. Biol. Med., 8:119-129). Targeted degree of cross-linking was defined as the molar ratio between cross-linker (DTSSP/BS^3) and pLL amines. Precalculated amount of the respective cross-linker was dissolved in the reaction buffer (HEPES/HBS), quickly added to BICs, and the reaction mixture was briefly vortexed and incubated for 2 hours on ice. Unreacted crosslinker was desalted using NAP™ columns following manufacturer's instructions. Cl-Nanozymes were purified using size exclusion chromatography (SEC) (small/intermediate scale) or centrifugal filtration (large scale). SEC was carried out using an ÄKTA™ Fast Protein Liquid Chromatography (FPLC) (Amersham Biosciences, Piscataway, N.J.) system. DTSSP cl-nanozymes were lyophilized overnight, reconstituted in deionized water (DW), loaded onto a HiPrep 16/60 Sephacryl™ S-400 HR column and eluted using 10 mM HBS (pH 7.4) at a flow rate of 0.5 mL/minute. Prior to each experiment, the column was pre-conditioned with free block copolymer (PEG-pLL50) to minimize non-specific adsorption of the cl-nanozymes (Boeckle et al. (2004) J. Gene Med., 6:1102-1111). Fractions spanning each distinct peak were pooled, concentrated using Amicon® Ultra-4 Centrifugal Filter Units with a molecular weight cutoff (MWCO) of 3000 Da and desalted using NAP™ columns as needed. Protein concentration was determined using Micro BCA™ Protein Assay Kit. In large-scale preparations, clnanozymes were purified by centrifugal filtration using Macrosep™ Centrifugal Device (Pall Life Sciences, Ann Arbor, Mich.) with a MWCO of either 100 kDa (for SOD1) or 1000 kDa (for catalase). Briefly, unreacted cross-linker in cross-linked BICs was desalted using NAP™ columns and eluate was collected in 10 mM HEPES containing 0.3 M NaCl (pH 7.4). Samples were loaded onto the centrifugal device and concentrated to 10% original volume by centrifuging at 4500 RPM. Two rounds of purification were done in 10 mM HEPES buffer containing 0.3 M NaCl (pH 7.4) and the third round was done in 10 mM HEPES buffer (pH 7.4). […]

[3] = molecular target: Catalase (from bovine liver), DTSSP cross-linked cl-nanozyme with PEG-pLL50, purified (C2p) (Bos taurus, UniProt P00432)
Catalase (from bovine liver), DTSSP cross-linked cl-nanozyme with PEG-pLL50, purified (C2p), sequence (P00432 whole entry): as above
Protocol: as §1, §2

Catalase (from bovine liver), native (nC), sequence (P00432 whole entry): as above

Question: How did the Kcat/Km [1] turn out when `OO` [H2O2, hydrogen peroxide] was run?
Answer: 1.5e+07 M⁻¹ s⁻¹

Question: And the Kcat/Km ([2]; 50 mM phosphate buffer pH 7.4, C2)?
Answer: 1.66e+07 M⁻¹ s⁻¹

Question: What about the “increase in Km value” ([2]; non-purified cl-nanozyme (C2) compared to native catalase (nC)) of the same compound?
Answer: ca. 1.8 fold

Question: What about the Kcat/Km ([3]; 50 mM phosphate buffer pH 7.4, C2p) of the same compound?
Answer: 7.75e+06 M⁻¹ s⁻¹

Question: And the “catalytic efficiency (kcat/Km), per cent lower than nC” value ([3]; purified cl-nanozyme (C2p) compared to native enzyme (nC))?
Answer: ca. 48%

Question: What about the “catalytic efficiency (kcat/Km), per cent lower than C2” value ([3]; purified cl-nanozyme (C2p) compared to non-purified (C2)) of the same compound?
Answer: ~53%
